Assay results taken from patent publication US20210115406A1, “HOST-BIOME INTERACTIONS” (EMULATE, INC., priority 2018, published 2021).

How the values were obtained:
Airway cells = test: Permeability of airway cells to Imipenem on Airway chip; assay type: cell-based; conditions: at lower concentrations
Protocol: More specifically, in one embodiment of an Airway on-chip, duplicate chips are infected with PA 5919 WT or PA 5890 Mutant as described herein. Then, Imipenem is added to apical and basolateral fluids (cell media) for treatment with Imipenem at 50, 100 and 500 μg/ml for 24 hours with at least one chip without Imipenem. At 24 h post treatment, wash cells 3× to remove the test drug, i.e. antibiotic Imipenem. Cells lysed with 1% Triton for 10 minutes on chip, then the lyste is collected from the chip's channels. Lysates are serially diluted for CFU quantification. N=2
Assay readouts: Viability of extracellular bacteria (apical sampling). Viability of intracellular bacteria (cell lysis and sampling). Two-way ANOVA with Dunnett's post-test **<0.05, **<0.001 (compared to untreated).

[1] = test system: Lamina Propria Immune Cells; test: Steroidal treatment of lamina propria immune cells on Intestine-Chip; assay type: cell-based, human; conditions: 10 μM (10X clinically relevant dosage); before and after challenge with PAM2CSK4; ulcerative colitis patients
Airway On-Chip cells = test: TUNEL apoptosis staining on Airway On-Chip; assay type: cell-based; conditions: 3 μM for 3 h at 37° C., positive control
Protocol: One embodiment of an Airway On-Chip is infected as described above for 2 hours and then treated 50 μg/ml tetracycline for 24 h (top and bottom channels under flow) for 24 h in order to limit bacterial replication (to avoid over-replication and cell lifting). Using this methodology, we performed longer infections on an airway chip and avoided cell death at 24 h. At 24 h, chips are fixed with 4% paraformaldehyde for 15 minutes and subsequently permeabilized with 0.25% triton in PBS. Apoptosis staining is performed following the Click-iT™ Plus TUNEL Assay for In Situ Apoptosis Detection, Alexa Fluor 647 assay: Click-iT™ Plus TUNEL Assay, Thermo Fisher Scientific Inc., 6 November 2017.
The TUNEL assay is based on the incorporation of modified dUTPs by the enzyme terminal deoxynucleotidyl transferase (TdT) at the 3′-OH ends of fragmented DNA, a hallmark as well as the ultimate determinate of apoptosis. Click-iT™ Plus TUNEL assay with the Alexa Fluor™ 647 dye is utilized to detect the fragment DNA (purple), nuclei are labelled with DAPI.
Staurosporin, a prototypical ATP-competitive kinase inhibitor, is used as a positive control in this assay. […] As an additional positive control, chips are treated with 1 unit of DNAse I for 30 minutes at room temperature to induce TUNEL positive DNA strand breaks.

Caco-2 Intestine-Chip = test: Bacterial colonization, attachment and titration on Intestine-Chip; assay type: cell-based, human; conditions: SEM images of the Intestine-Chip
Description: Top Channel: Caco-2. Day 1: Connect to flow. Day 3: Inoculation and Readouts: Imaging; Permeability; Bacterium Titer; etc. Day 8: Inflammatory Challenge. Readouts: Imaging; Permeability; Cytokines; Bacterium Titer; etc. Day 8 +4 hrs: Readouts: Imaging; Permeability; Cytokines; Bacterium Titer; etc. Day 8 +14 hrs: Readouts: Permeability; Cytokines; Effluent Titer; etc. Day 8 +14 hrs: Collect Endpoints: RNA; Immunofluorescence; Adherent Titer; etc.
Barrier function is an indicator of epithelial cell health in the intestine. […] Each bacteria strain was added (inoculated) on chip at a concentration of 1×10^6 mL^−1.
FIG. 44A Bacterial Titration (counts mL^−1) at Day 3 and Day 4 compared to adherent counts at Day 4.
Bacterial Titration. Viable, aerotolerant bifidobacterial strains colonized the Caco-2 Intestine-Chip and could be detected in plate Titers.

Compound: C[C@@H](O)[C@H]1C(=O)N2C(C(=O)O)=C(SCCN=CN)C[C@H]12 [Imipenem]
- permeability of airway cells to the drug (Airway cells): impermeable

Compound: C[C@]12C=CC(=O)C=C1CC[C@@H]1[C@@H]2C(=O)C[C@@]2(C)[C@H]1CC[C@]2(O)C(=O)CO [Prednisone]
- inflammatory responses [1]: suppresses inflammatory responses

Compound: CN[C@@H]1C[C@H]2O[C@@](C)([C@@H]1OC)n1c3ccccc3c3c4c(c5c6ccccc6n2c5c31)C(=O)NC4 [staurosporin, Staurosporin]
- apoptotic cell numbers (TUNEL) (Airway On-Chip cells): increased apoptotic cell numbers

Compound: Lactobacillus rhamnosus strain GG [LGG]
- attachment and biofilm formation (Caco-2 Intestine-Chip): evidence of LGG attachment and biofilm formation
